Test results published in patent US12576107B2, “Methods of treating chronic inflammatory diseases” (METIMEDI PHARMACEUTICALS CO., LTD., priority 2018, dated 2026).
Entries after “also recorded” stand apart in the source; their conditions may differ.

Assays:
[1] = system: laser-induced AMD mice; test: Laser-induced age-related macular degeneration (AMD) animal model; format: in vivo, C57BL/6 mice
Description: Six-week-old female C57BL/6 mice (20-25 g) were purchased from Orient (Charles River Korea, Seoul, Korea). All animals were maintained in a 12-hour light/dark cycle (light on, 08:00) at 22° C.-25° C. with free access to food and water. The mice were placed individually in an induction chamber, and anesthesia was induced with 2% isoflurane (HANA PHARM CO., Seoul, Korea). The lesions were induced in each eye of the mice by laser photocoagulation (SDL405-700, SD Laser, China). The laser pulses were from blue laser (wavelength, 405 nm; SD Laser). Laser parameters were 100 μm spot size, 700 mw power and 1 s exposure time. A total of 15 mice were randomized into three groups: (i) not subjected to laser induction (n=3); (ii) subjected to laser burns and injected with the vehicle buffer (n=5); and (iii) CaLa, 2 mg/kg/day (B.I.D) (n=7). CaLa treatment was started the days after laser photocoagulation and was treated subcutaneously for 14 days. (33, 34)
The histopathologic examination of retinal lesions was performed 2 weeks after 2 mg/kg of CaLa was administered subcutaneously. The enucleated eyes were fixed with 4% paraformaldehyde (PFA) for 24 h at 4° C., and eyes obtained by removing the anterior segments were washed three times in phosphate-buffered saline. The fixed flat-mounts were dehydrated in a graded series of ethanol and embedded in paraffin. […] The choroidal lesion and neovascularization on the flat-mounts were observed by confocal microscopy (Carl Zeiss, Oberkochen, Germany).
Animals. […] Six-week-old C57BL mice were purchased from Orient (Charles River Korea, Seoul, Korea). All animals were maintained in a 12-hour light/dark cycle (light on, 08:00) at 22-25° C. with free access to food and water.
Calcium lactate was purchased from Sigma Aldrich (St. Louis, MO, USA).
Animal model for ocular disease. The mice were placed individually in an induction chamber, and anesthesia was induced with 2% isoflurane (HANA PHARM CO., Seoul, Korea). The laser-induced rupture of Bruch's membrane was induced in both eyes of mice by laser photocoagulation (SDL405-700, SD Laser, China). […]

[2] = system: NF-κb; test: Western blot of NF-κb in the tissue of retinal pigment epithelium; format: in vivo, mice; details: 2.5 mM (so in the source)
Description: To prepare whole cell lysate, cells were lysed with lysis buffer (1% NP-40, 0.25% sodium deoxycholate, 150 mM NaCl, 1 mM EDTA, 1% Triton X-100, 50 mM Tris-HCl (pH 7.4), 10% Glycerol) with protease inhibitor cocktail (Roche, Basel, Switzerland) and phosphatase inhibitors (NA3VO4 1 mM, NaF 100 mM). Then, protein concentration was measured using the Bicinchoninic acid (BCA) assay kit (Thermo Scientific, Waltham, MA). Whole cell or nuclear lysates were transferred onto polyvinylidene fluoride membranes (Merck Millipore, Billerica, MA, USA). After blocking in 5% non-fat milk (Bio-Rad, Hercules, CA, USA) for 1 h, the membranes were incubated overnight at 4° C. with primary antibody diluted in TBST containing 100 mM Tris-HCl (pH 7.5), 1.5 M NaCl, and 0.5% Tween-20 obtained from Sigma-Aldrich, to which 5% BSA and 0.1% sodium azide (Sigma-Aldrich) had been added. Specific primary antibodies to HIF-1α (1:1000), HIF-2α (1:1000), LDH-A (1:1000), LDH-B (1:1000), TLR-4 (1:1000), NF-κB (1:1000), VEGF (1:1000), α-tubulin (1:1000), Actin (1:1000), and GAPDH (1:5000). The next day, the membranes were washed with TBST and incubated for 2 h with anti-rabbit secondary antibody (1:10000). Immunoblots were developed using a western blot detection reagent (Abclone, Seoul, Korea) and exposed to x-ray film (Agfa, Leverkusen, Germany) according to the manufacturer's protocol. […]

[3] = system: nonalcoholic steatohepatitis (NASH) mice; test: Liver CID (NASH) in vivo experiment, methionine-choline deficient (MCD) diet; details: 2 mg/kg subcutaneous B.I.D
Description: Female 5-week-old C57BL/6 mice were purchased form KOATEC (Pyeongtaek, South Korea) and were fed Methionine-Choline diet (MCD) for 4 weeks. When the mice weighed 15 g each, the mice were autopsied randomly to identify nonalcoholic steatohepatitis (NASH).
Mouse liver tissues (n=5) were dissected and fixed in 4% paraformaldehyde PBS solution for 15 h at 4° C. Fixed liver tissues were embedded in paraffin and sectioned at 10 μm. Slides were incubated at 55° C. for 2 h, and subsequently deparaffinized in xylene and rehydrated in a graded ethanol series and used for hematoxylin (Merck, Darmstadt, Germany) and eosin (H&E) staining (35). Paraffin sections (10 μm thick) stained with H&E were imaged using a Leica DM 1000 LED microscope (Leica Microsystems, Wetzlar, Germany).
Mouse liver tissues (n=5) were dissected and fixed in 4% paraformaldehyde PBS solution for 15 h at 4° C. Fixed tissues were embedded in paraffin and sectioned at 5 mm. Slides were incubated at 55° C. for 2 h, and subsequently deparaffinized in xylene and rehydrated in a graded ethanol series and re-fix in Bouin's solution for 1 hr at 56° C., remove the yellow color to rinse running tap water for 5-10 min and stained Biebrich scarlet-acid fuchsin solution for 5 min then in phosphomolybdic-phosphotungstic acid solution (ratio 1:1) for 30 minutes, and aniline blue solution and stain for 15 minutes. Rinse briefly in distilled water and in 1% acetic acid solution for 2-5 min. […] Mount with mounting medium. Imaged using a Leica DM 1000 LED microscope (Leica Microsystems, Wetzlar, Germany).
Animal Model for liver diseases. […] Female 5-week-old C57BL/6 mice were purchased form KOATEC (Pyeongtaek, South Korea) and were fed Methionine-Choline (MCD) diet for 4 weeks. […] Histological analysis. Mouse Liver tissues (n=5) were dissected and fixed in 4% paraformaldehyde PBS solution for 15 h at 4° C. Fixed liver tissues were embedded in paraffin and sectioned at 10 μm. Slides were incubated at 55° C. for 2 h, and subsequently deparaffinized in xylene and rehydrated in a graded ethanol series and used for hematoxylin (Merck, Darmstadt, Germany) and eosin (H&E) staining. Paraffin sections (10 μm thick) stained with H&E were imaged using a Leica DM 1000 LED microscope (Leica Microsystems, Wetzlar, Germany
Masson Trichrome Stain. Mouse Liver tissues (n=5) were dissected and fixed in 4% paraformaldehyde PBS solution for 15 h at 4° C. Fixed tissues were embedded in paraffin and sectioned at 5 mm. Slides were incubated at 55° C. for 2 h, and subsequently deparaffinized in xylene and rehydrated in a graded ethanol series and re-fix in Bouin's solution for 1 hr at 56° C., remove the yellow color to rinse running tap water at 5-10 min and stained Biebrich scarlet-acid fuchsin solution for 5 min than in phosphomolybdic-phosphotungstic acid solution (ratio 1:1) for minutes, and aniline blue solution and stain for 15 minutes. Rinse briefly in distilled water and in 1% acetic acid solution for 2-5 minutes. […] Mount with mounting medium. Imaged using a Leica DM 1000 LED microscope (Leica Microsystems, Wetzlar, Germany).
To induce NASH, mice were fed methionine-choline deficient (MCD) diet with polyunsaturated fat for 8 weeks. […] Results are MEAN±SD.

[4] = system: lactate dehydrogenase A; test: Immunocytochemistry of lactate dehydrogenase A in ARPE-19 cells; format: cell-based, Human; details: 2.5 mM, normoxia
Description: Human retinal pigment epithelium cell line, ARPE-19, was purchased from American Type Culture Collection (Manassas, VA, USA). The ARPE-19 cells were maintained in RPMI1640 containing 10% fetal bovine serum (Life Technologies, Gaithersburg, MD, USA), 100 IU/ml penicillin, and 100 μg/ml streptomycin (Welgene, Daegu, South Korea).
ARPE-19 and SK-N-SH cells were fixed on bio-coated coverslips (BD bioscience, San Jose, CA, USA) by 4% PFA for 20 min and then incubated with the primary antibodies for 15 h. The primary antibodies were as follows: HIF-1a (1:300, BD Biosciences, San Jose, CA, USA); LDH-A (1:300, Santa Cruz Biotechnology, Santa Cruz, CA, USA); LDH-B (1:300, Santa Cruz Biotechnology, Santa Cruz, CA, USA); NF-κB (1:300, Santa Cruz Biotechnology, Santa Cruz, CA, USA); TLR-4 (1:300, Santa Cruz Biotechnology, Santa Cruz, CA, USA); apoE (1:200, Santa Cruz Biotechnology, Santa Cruz, CA, USA). After PBS wash, the cells were incubated with anti-mouse secondary biotinylated antibody (1:2000, Vector Laboratorie, Burlingame, CA, USA) and visualized with streptavidin conjugated to Fluorescein (Vector Laboratorie, Burlingame, CA, USA). […] Confocal fluorescence images were obtained with confocal laser scanning microscopy (LSCM, Nikon A1+, Tokyo, Japan) under a 60× oil immersion lens.

CC(O)C(=O)[O-].CC(O)C(=O)[O-].[Ca+2] (centres unmarked) [calcium lactate]
choroidal lesion (fluorescence, flat-mount) ([1]; 2 mg/kg daily subcutaneous): restored
choroidal neovascularization (fluorescence, flat-mount) ([1]; 2 mg/kg daily subcutaneous): restored
morphology of the retinal pigment epithelium (H&E) ([1]; 2 mg/kg subcutaneous, choroidal flat-mount): recovered
inflammatory factor (NF-κb), Western blot [2]: decreased
liver fibrosis (collagen accumulation) ([3]; Masson trichrome): not present
serum alanine aminotransferase (ALT) ([3]; P<0.001 vs. MCD): significantly decreased
serum aspartate aminotransferase (AST) ([3]; P<0.001 vs. MCD): significantly decreased
immune cell infiltration in the liver ([3]; histology): decreased
lipid droplets in the liver ([3]; histology): not observed; also recorded: not present
liver steatosis ([3]; histology): prevented
lactate dehydrogenase A, immunocytochemistry [4]: decreased
